Data set [1] deals with Blumeria graminis f. sp. tritici. Description: Antifungal activity against Erysiphe graminis f. sp. tritici at […] relative to control. Format: functional.
The nature of data set [2]: Aqueous solubility at pH 7.0. Format: physicochemical.
Data set [3] can be described thus: Partition coefficient, log P by chromatographic hydrophobicity method. Format: physicochemical. The settings on record: octanol/water.
Data set [4] in a line: Partition coefficient, log P of the compound. Particulars: octanol/water. Format: physicochemical.

Converted amounts (≈) assume the structure as drawn.

`c1coc(COc2nnnc3c2sc2nc(N4CCOCC4)c4c(c23)CCCC4)c1`: the Activity in data set [1] worked out at 0%. `Clc1nnnc2c1sc1nc(N3CCOCC3)c3c(c12)CCCC3` had an Activity in data set [1] of 0%.

On to `CCN(CC)c1nc2sc3c(OC)nnnc3c2c2c1CCCC2`, for which the Activity in data set [1] stood at 100%. In data set [2], the concentration in solution (solubility) was 0.08 µg/mL (≈ 0.233 µM). Besides, in data set [3], the logP – broadly, a log measure of how a compound divides between an organic and an aqueous phase – came out at 5.32.

As to `CCCCN(C)c1nc2sc3c(OC)nnnc3c2c2c1CCCC2`, the Activity in data set [1] is on record as 83%.

For `CCCOc1nnnc2c1sc1nc(N3CCOCC3)c3c(c12)CCCC3`, the Activity in data set [1] came to 94%.

Compound `COCCNc1nnnc2c1sc1nc(N3CCOCC3)c3c(c12)CCCC3` came in with an Activity in data set [1] of 0%. In data set [1], `C1CCc2c(c(N3CCOCC3)nc3sc4c(OC5CCCC5)nnnc4c23)C1` had an Activity of 0%. Consider `CC(Cc1ccc(C(C)(C)C)cc1)CN1C[C@@H](C)O[C@@H](C)C1` (stereo partly specified) [FENPROPIMORPH], for which, in data set [1], the Activity was 97%. In data set [1], `COc1nnnc2c1sc1nc(N3CCOCC3)c3c(c12)CCCC3` displayed an Activity of 100%. In data set [2], the solubility (as a rule, the concentration that dissolves in the medium under given conditions) was 0.08 µg/mL (≈ 0.224 µM). Also, the logP in data set [4] amounted to 4.25; in data set [3], 4.06. In data set [1], `CCN(CC)c1nnnc2c1sc1nc(N3CCOCC3)c3c(c12)CCCC3` showed an Activity of 0%.

`COCCN(C)c1nc2sc3c(OC)nnnc3c2c2c1CCCC2` registered an Activity in data set [1] of 100%. Besides, the concentration in solution in data set [2] (solubility) came to 0.32 µg/mL (≈ 0.89 µM). The same compound returned a logP in data set [3] of 4.31.

Turning to `c1ccc(CSc2nnnc3c2sc2nc(N4CCOCC4)c4c(c23)CCCC4)cc1`, the Activity in data set [1] amounted to 0%. On the same count and under the same terms, as for `COc1nnnc2c1sc1nc(OS(=O)(=O)C(F)(F)F)c3c(c12)CCCC3`, the figure is 40%; as for `CCCCNc1nnnc2c1sc1nc(N3CCOCC3)c3c(c12)CCCC3`, 0%; as for `COc1nnnc2c1sc1nc(N3CCCC3)c3c(c12)CCCC3`, 92%. On to `COCCOc1nnnc2c1sc1nc(N(C)CCOC)c3c(c12)CCCC3`, for which, in data set [1], the Activity was 100%. Also, the concentration in solution in data set [2] (solubility) was 0.48 µg/mL (≈ 1.19 µM). The compound also gave a logP in data set [3] of 4.12. In the same order, the values of `COCCN(CCOC)c1nc2sc3c(OC)nnnc3c2c2c1CCCC2` are 67%, 0.79 µg/mL (≈ 1.96 µM) and 4.09.

For the compound `COc1nnnc2c1sc1nc(N(C)Cc3ccccc3)c3c(c12)CCCC3`, the Activity in data set [1] was found to be 100%. The same measure, in the same setting: the result for `CSc1nnnc2c1sc1nc(N3CCOCC3)c3c(c12)CCCC3` reads 100%. `Sc1nnnc2c1sc1nc(N3CCOCC3)c3c(c12)CCCC3` yielded an Activity in data set [1] of 0%. The same measure, in the same setting: the result for `COc1nnnc2c1sc1nc(O)c3c(c12)CCCC3` reads 0%; that for `CC(C)Oc1nnnc2c1sc1nc(N3CCOCC3)c3c(c12)CCCC3`, 0%. Consider `CCOc1nnnc2c1sc1nc(N3CCOCC3)c3c(c12)CCCC3`, for which, in data set [1], the Activity was 100%.

`CCCOc1nc2sc3c(OC)nnnc3c2c2c1CCCC2`: the Activity in data set [1] is given as 100%. In data set [1], `COCCOc1nnnc2c1sc1nc(N3CCOCC3)c3c(c12)CCCC3` yielded an Activity of 100%. The compound also yielded a solubility in data set [2] of 0.21 µg/mL (≈ 0.523 µM). Moreover, the logP in data set [3] worked out at 3.82. In data set [1], `NNc1nnnc2c1sc1nc(N3CCOCC3)c3c(c12)CCCC3` showed an Activity of 0%. Turning to `c1ccc(NNc2nnnc3c2sc2nc(N4CCOCC4)c4c(c23)CCCC4)cc1`, the Activity in data set [1] worked out at 0%. In data set [1], `COCCNc1nc2sc3c(OC)nnnc3c2c2c1CCCC2` gave an Activity of 33%. In data set [2], the concentration in solution (solubility) came to 0.14 µg/mL (≈ 0.405 µM). Besides, in data set [3], the lipophilicity (logP) was found to be 3.9. `CCSc1nnnc2c1sc1nc(N3CCOCC3)c3c(c12)CCCC3` came in with an Activity in data set [1] of 100%. In data set [1], `C1CCc2c(c(N3CCOCC3)nc3sc4c(N5CCOCC5)nnnc4c23)C1` came in with an Activity of 0%. With `CC(C)CCOc1nnnc2c1sc1nc(N3CCOCC3)c3c(c12)CCCC3`, in data set [1], the Activity is reported as 0%.

The values are drawn from ChEMBL document CHEMBL1139772, “Synthesis and SAR studies of novel antifungal 1,2,3-triazines” (Bioorg Med Chem Lett, 2007).
